From PubChem BioAssay (NCI)
Where “and” joins values, the source holds several entries; their conditions need not be identical. Identical values can stand only once.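 Each compound was tested at five concentrations against cells in 96-well plates for 48 hours. GI50 is the concentration that inhibits growth by half. TGI is the concentration that stops growth completely.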

Key:
Test in all cases: NCI tumour cell line growth inhibition, 48 h
[1] = system: LOX IMVI melanoma
[2] = system: OVCAR-3 ovarian
[3] = system: RXF 393 renal
[4] = system: SW-620 colon
[5] = system: COLO 205 colon
[6] = system: NCI-H460 lung
[7] = system: SNB-19 CNS
[8] = system: MDA-MB-231 breast
[9] = system: MCF7 breast
[10] = system: HS 578T breast

| SMILES | TGI [1] | TGI [2] | TGI [3] | TGI [4] | TGI [5] | TGI [6] | TGI [7] | TGI [8] | TGI [9] | TGI [10] | GI50 [1] | GI50 [2] | GI50 [3] | GI50 [4] | GI50 [5] | GI50 [6] | GI50 [7] | GI50 [8] | GI50 [9] | GI50 [10] |
| --- | --- | --- | --- | --- | --- | --- | --- | --- | --- | --- | --- | --- | --- | --- | --- | --- | --- | --- | --- | --- |
| COc1cc(C2C(C(=O)Nc3ccc([N+](=O)[O-])cc3)=C(C)NC(C)=C2C(=O)Nc2ccc([N+](=O)[O-])cc2)ccc1O | 31.5 µM | 55.7 µM | 39 µM | 52.3 µM | 30.9 µM | > 62.1 µM | > 73.9 µM |  |  |  |  |  |  |  |  |  |  |  |  |  |
| C[C@H](CS)C(=O)N1c2ccccc2C[C@H]1C(=O)O |  | > 100 µM |  | > 100 µM | > 100 µM | > 100 µM | > 100 µM | > 100 µM | > 100 µM | > 100 µM |  |  |  |  |  |  |  |  |  |  |
| CCN(CC)CC(=O)NC1c2ccccc2Oc2c(C)cccc21 (stereo not given) | > 100 µM |  | > 100 µM | > 100 µM | > 100 µM | > 100 µM | > 100 µM |  |  |  |  |  |  |  |  |  |  |  |  |  |
| CN(C)C(=O)NC(=S)N(C)C |  |  | > 100 µM | > 100 µM |  | > 100 µM | > 100 µM |  |  |  |  |  |  |  |  |  |  |  |  |  |
| CC(=O)OC(C)(C)/C=C/C(=O)[C@](C)(O)[C@H]1[C@H](O)C[C@@]2(C)[C@@H]3CC=C4[C@@H](C=C(O)C(=O)C4(C)C)[C@]3(C)C(=O)C[C@]12C |  |  | 46.1 nM [middle of 4 runs] | 7.04 µM and 1.26 µM and 3.48 µM |  | 1.81 µM and 1.68 µM and 1.49 µM |  | 3.39 µM | 3.6 µM and 1.77 µM and 1.86 µM |  |  |  |  |  |  |  |  |  |  |  |
| CCOc1ccc(OCC)c([P+](c2ccccc2)(c2ccccc2)c2ccccc2)c1 | 3.1 µM | 2.74 µM | 15.7 µM | 13.1 µM | 1.31 µM | 11.6 µM | 12.7 µM |  |  |  |  |  |  |  |  |  |  |  |  |  |
| CC(=O)[CH-]C(=O)c1ccccc1.CC(=O)[CH-]C(=O)c1ccccc1.CC(C)CCC[C@H](C)C1CCC2[C@@H]3CC=C4C[C@@H]([O-])CC[C@]4(C)C3CC[C@@]21C.CC(C)CCC[C@H](C)C1CCC2[C@@H]3CC=C4C[C@@H]([O-])CC[C@]4(C)C3CC[C@@]21C.Cl.[Ti+4] (stereo not given in full) | > 25 µM | > 25 µM | > 25 µM | > 25 µM | > 25 µM | > 25 µM | > 25 µM |  |  |  | > 25 µM | > 25 µM | > 25 µM | > 25 µM | > 25 µM | > 25 µM | > 25 µM |  |  |  |
| COc1cc(/C=C/c2ccc(Br)cc2)cc(OC)c1OC | > 100 µM | 26.4 µM | 54.6 µM | > 100 µM | 25.7 µM | 49.4 µM | > 100 µM |  |  |  |  |  |  |  |  |  |  |  |  |  |
| CC1=C(C(=O)NCc2ccccc2)C(c2ccccc2C)C(C(=O)NCc2ccccc2)=C(C)N1 | 35.7 µM | 45.5 µM | 43.7 µM | > 100 µM | > 100 µM | 45.9 µM | > 100 µM |  |  |  |  |  |  |  |  |  |  |  |  |  |
| O=C(CO[N+](=O)[O-])OC/C=C/c1ccccc1 | > 100 µM | > 100 µM | > 100 µM | > 100 µM | > 100 µM | > 100 µM | > 100 µM |  |  |  |  |  |  |  |  |  |  |  |  |  |
| CN(C)CCn1cnc2ncccc2c1=O | > 100 µM | > 100 µM | > 100 µM | > 100 µM | > 100 µM | > 100 µM | > 100 µM |  |  |  |  |  |  |  |  |  |  |  |  |  |
| CC1CCC(=O)C(C(O)CC2CC(=O)N(c3ccccc3)C(=O)C2)C1 (stereo not given) | > 100 µM | > 100 µM | > 100 µM | > 100 µM | > 100 µM | > 100 µM | > 100 µM |  |  |  |  |  |  |  |  |  |  |  |  |  |
| C/C(=N\n1c(O)c(C#N)cc(C#N)c1=O)c1ccncc1 | > 100 µM | > 100 µM |  | > 100 µM | > 100 µM | > 100 µM | > 100 µM | > 100 µM | > 100 µM | > 100 µM | > 100 µM | > 100 µM |  | > 100 µM | > 100 µM | > 100 µM | > 100 µM | > 100 µM | > 100 µM | > 100 µM |
| COc1ccc(Cl)cc1Nc1nc(C(F)(F)F)ccc1C(=O)N/N=C/c1cccnc1 | > 100 µM | 6.82 µM |  | > 100 µM | > 100 µM | > 100 µM | > 100 µM | > 100 µM | > 100 µM | > 100 µM | 3.17 µM | 0.665 µM |  | 4.07 µM | 2.58 µM | 4.03 µM | 3.78 µM | 4.51 µM | 3.51 µM | 11.8 µM |
| CCCCCCCCCCSC(=O)NC | > 100 µM | > 100 µM | 44.1 µM | > 100 µM | > 100 µM | > 100 µM | > 100 µM |  |  |  |  |  |  |  |  |  |  |  |  |  |
| COc1ccc(-c2ccccc2)c2[nH]c3c(c12)CCNC3=O | > 100 µM | > 100 µM | > 100 µM | > 100 µM | > 100 µM | > 100 µM | > 100 µM |  |  |  |  |  |  |  |  |  |  |  |  |  |
| COC1[C@H](NC(=O)OC(C)(C)C)C(=O)N1Cc1ccccc1 (stereo not given in full) | > 100 µM | > 100 µM | > 100 µM | > 100 µM | > 100 µM | > 100 µM | > 100 µM |  |  |  |  |  |  |  |  |  |  |  |  |  |
| CCCCCCCCCCCCCCCCc1c(C(=O)OC)nc(NN)[nH]c1=O | > 50 µM | > 50 µM | > 50 µM | > 50 µM | > 50 µM | > 50 µM | > 50 µM |  |  |  |  |  |  |  |  |  |  |  |  |  |
